The values that follow come from PubChem BioAssay (NCI).

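Method: 48-hour compound exposure of cells in 96-well plates, five concentrations, linear interpolation of endpoints. At the GI50, growth is halved. TGI: total growth inhibition.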

Test systems include OVCAR-4 ovarian; CAKI-1 renal; OVCAR-3 ovarian; SNB-75 CNS; UACC-257 melanoma; UO-31 renal; OVCAR-8 ovarian; LOX IMVI melanoma; HOP-62 NSCLC; UACC-62 melanoma; HL-60(TB) leukemia; RPMI-8226 leukemia; M19-MEL melanoma; M14 melanoma; SK-OV-3 ovarian; NCI-H226 lung; SF-295 CNS; A549 NSCLC; MCF7 breast.
Test in all cases: growth of human tumour cells (NCI), 48 h

For the molecule `COc1ccc2c(c1)O[C@H]1c3ccc(O)cc3OC[C@@H]21`, the TGI with OVCAR-4 ovarian is > 100 µM; in the experiment on CAKI-1 renal, > 100 µM; with OVCAR-3 ovarian, > 100 µM; in the experiment on SNB-75 CNS, 47.1 µM; in the experiment with UACC-257 melanoma, 52.5 µM; with UO-31 renal it was 72.6 µM. Further, the TGI in the experiment on OVCAR-8 ovarian is > 100 µM; in the experiment on LOX IMVI melanoma it was 32.2 µM; in the experiment on HOP-62 NSCLC, > 100 µM; in the experiment with UACC-62 melanoma, 29.3 µM; with HL-60(TB) leukemia it was 49.8 µM; in the experiment with RPMI-8226 leukemia, 89 µM. Moreover, the TGI in the experiment with M19-MEL melanoma is 46 µM; with M14 melanoma it was 47.7 µM; in the experiment with SK-OV-3 ovarian, 98.9 µM; in the experiment with NCI-H226 lung, 59.3 µM; in the experiment with SF-295 CNS, > 100 µM; in the experiment with A549 NSCLC, > 100 µM.
On to `O=C(O)c1cncc(C(=O)O)c1`, for which the TGI with OVCAR-4 ovarian, in the experiment with CAKI-1 renal, in the experiment on OVCAR-3 ovarian, with SNB-75 CNS, in the experiment with UACC-257 melanoma and with UO-31 renal was > 100 µM throughout. Besides, the TGI in the experiment on OVCAR-8 ovarian, in the experiment on LOX IMVI melanoma, with HOP-62 NSCLC, in the experiment on MCF7 breast, in the experiment with UACC-62 melanoma and in the experiment on HL-60(TB) leukemia was > 100 µM throughout. In addition, the TGI with RPMI-8226 leukemia, in the experiment with M14 melanoma, with SK-OV-3 ovarian, with NCI-H226 lung, in the experiment on SF-295 CNS and with A549 NSCLC was > 100 µM throughout.
For `O=c1[nH]cc(N(CCCl)CCCl)c(=O)[nH]1`, the TGI in the experiment with OVCAR-4 ovarian was 199 µM; with CAKI-1 renal it was 56.7 µM; with OVCAR-3 ovarian, 223 µM; with SNB-75 CNS, 162 µM; in the experiment on UACC-257 melanoma, 159 µM; in the experiment with UO-31 renal, 201 µM. In addition, the TGI in the experiment on OVCAR-8 ovarian is 201 µM; with LOX IMVI melanoma it was 165 µM; in the experiment on HOP-62 NSCLC, 81.7 µM; with MCF7 breast, 205 µM; in the experiment on UACC-62 melanoma, 60.6 µM; in the experiment on HL-60(TB) leukemia, 36.9 µM. Besides, the TGI in the experiment with RPMI-8226 leukemia was 284 µM; in the experiment with M19-MEL melanoma it was 175 µM; with M14 melanoma it was 89.9 µM; with SK-OV-3 ovarian it was 183 µM; in the experiment on NCI-H226 lung, 179 µM; in the experiment with SF-295 CNS it was 246 µM. For the same molecule, the TGI in the experiment on A549 NSCLC was 314 µM.
As to `COc1cccc(C2C(C(=O)O)=C(CO)Oc3cc4c(cc32)OCO4)c1` (stereo not drawn), the TGI in the experiment with CAKI-1 renal, in the experiment with OVCAR-3 ovarian, with SNB-75 CNS, in the experiment on UO-31 renal, with OVCAR-8 ovarian and with LOX IMVI melanoma was > 100 µM throughout. In addition, the TGI in the experiment with UACC-62 melanoma, in the experiment on HL-60(TB) leukemia, with RPMI-8226 leukemia, in the experiment with M19-MEL melanoma, with M14 melanoma and with SK-OV-3 ovarian was > 100 µM each time. The TGI in the experiment with NCI-H226 lung and in the experiment with SF-295 CNS was > 100 µM throughout.
For the molecule `c1ccc(SC(Sc2ccccc2)c2ccc3c(c2)OCO3)cc1`, the TGI in the experiment with OVCAR-4 ovarian, in the experiment on CAKI-1 renal, in the experiment on OVCAR-3 ovarian, in the experiment on UACC-257 melanoma, in the experiment with UO-31 renal and in the experiment on OVCAR-8 ovarian was > 100 µM each time. The TGI in the experiment on LOX IMVI melanoma, in the experiment on HOP-62 NSCLC, in the experiment on UACC-62 melanoma, with HL-60(TB) leukemia, in the experiment with M14 melanoma and in the experiment with NCI-H226 lung was > 100 µM each time. Further, the TGI with SF-295 CNS and in the experiment on A549 NSCLC was > 100 µM each time.
Consider `COc1ccc2c[n+](C)c3c4cc(OC)c(OC)cc4ccc3c2c1`, for which the TGI is 26.4 µM in the experiment with OVCAR-4 ovarian; > 100 µM in the experiment on CAKI-1 renal; 17.7 µM with OVCAR-3 ovarian; 15.7 µM with SNB-75 CNS; 57.6 µM with UACC-257 melanoma; 84.6 µM with UO-31 renal. Further, the TGI with OVCAR-8 ovarian was 13.8 µM; in the experiment with LOX IMVI melanoma, 17.2 µM; with HOP-62 NSCLC, 27.7 µM; in the experiment on MCF7 breast, > 100 µM; in the experiment with UACC-62 melanoma, 41.3 µM; in the experiment with HL-60(TB) leukemia, 32.4 µM. The TGI in the experiment on RPMI-8226 leukemia was determined as 16.1 µM; with M19-MEL melanoma, 25.6 µM; in the experiment with M14 melanoma, 32.1 µM; in the experiment with SK-OV-3 ovarian it was 14.7 µM; with NCI-H226 lung, 35.1 µM; in the experiment on SF-295 CNS, 34.8 µM. In addition, in the experiment on A549 NSCLC, the TGI came out at 10.3 µM.
`CCN(CC)CCC(=O)c1ccccc1`: the TGI in the experiment on OVCAR-4 ovarian turned out to be 40.5 µM; in the experiment with OVCAR-3 ovarian it was 38.8 µM; in the experiment on SNB-75 CNS, 38.8 µM; in the experiment on UACC-257 melanoma it was 61.4 µM; with UO-31 renal it was 93 µM; with OVCAR-8 ovarian it was 58 µM. Besides, the TGI in the experiment on LOX IMVI melanoma is 36 µM; with HOP-62 NSCLC, > 100 µM; in the experiment with HL-60(TB) leukemia it was 43.9 µM; in the experiment with RPMI-8226 leukemia, 15.6 µM; with M19-MEL melanoma, 56.1 µM; in the experiment on M14 melanoma, 31.5 µM. The TGI with NCI-H226 lung and in the experiment on A549 NSCLC was > 100 µM throughout.
Regarding `O=C(O)/C=C/c1cnc[nH]1`, the TGI with OVCAR-4 ovarian, in the experiment on CAKI-1 renal, with OVCAR-3 ovarian, in the experiment with SNB-75 CNS, in the experiment on UACC-257 melanoma and with UO-31 renal was > 500 µM in each case. In addition, the TGI with OVCAR-8 ovarian, with LOX IMVI melanoma, in the experiment with HOP-62 NSCLC, in the experiment on MCF7 breast, with UACC-62 melanoma and in the experiment on HL-60(TB) leukemia was > 500 µM each time. For the same molecule, the TGI in the experiment with RPMI-8226 leukemia, in the experiment on M19-MEL melanoma, in the experiment with SK-OV-3 ovarian, with NCI-H226 lung, in the experiment on SF-295 CNS and with A549 NSCLC was > 500 µM throughout. Moreover, the GI50 in the experiment on HL-60(TB) leukemia was > 500 µM.
For `CC(=O)[O-].CC(=O)[O-].O=C(N/N=C/c1cc(Cl)cc(Cl)c1[OH2+])c1ccncc1.[Zn+2]`, the TGI with OVCAR-3 ovarian is 94.8 µM; in the experiment on SNB-75 CNS, > 100 µM; in the experiment on UACC-257 melanoma, > 100 µM; in the experiment on UO-31 renal it was > 100 µM; in the experiment with OVCAR-8 ovarian, > 100 µM; in the experiment on LOX IMVI melanoma, > 100 µM. Further, the TGI with HOP-62 NSCLC, with UACC-62 melanoma, in the experiment on HL-60(TB) leukemia, in the experiment with RPMI-8226 leukemia, in the experiment on M14 melanoma and in the experiment on SK-OV-3 ovarian was > 100 µM each time. Also, the TGI with NCI-H226 lung, in the experiment with SF-295 CNS and in the experiment with A549 NSCLC was > 100 µM throughout.
`CC(=O)NC(CCCCNC(=O)OC(C)(C)C)C(=O)O` (stereo not drawn): the TGI in the experiment on OVCAR-4 ovarian, with CAKI-1 renal, in the experiment on OVCAR-3 ovarian, in the experiment on UACC-257 melanoma, in the experiment on UO-31 renal and with OVCAR-8 ovarian was > 100 µM throughout. In addition, the TGI in the experiment on LOX IMVI melanoma, with HOP-62 NSCLC, in the experiment with MCF7 breast, in the experiment with UACC-62 melanoma, in the experiment on HL-60(TB) leukemia and in the experiment with RPMI-8226 leukemia was > 100 µM each time. Besides, the TGI with M14 melanoma, with SF-295 CNS and with A549 NSCLC was > 100 µM in each case.
Regarding `CCOC(=O)C1(C(=O)OCC)CSC1`, the TGI in the experiment on OVCAR-4 ovarian, in the experiment with OVCAR-3 ovarian, with SNB-75 CNS, with UACC-257 melanoma, with UO-31 renal and in the experiment with OVCAR-8 ovarian was > 100 µM each time. The TGI with LOX IMVI melanoma, in the experiment on MCF7 breast, in the experiment with M14 melanoma, in the experiment on SK-OV-3 ovarian, in the experiment on NCI-H226 lung and in the experiment on SF-295 CNS was > 100 µM in each case. Besides, the TGI in the experiment with A549 NSCLC was > 100 µM.
